Laboratory results from patent US11447512B2 (Shenzhen TargetRx, Inc., priority 2017, dated 2022).
Counter-ions that a name gives are not always drawn. Like-named read-outs stand apart in the source and are kept apart here.

Tests used:
[1] = Cytotoxicity experiment of the anti-HBV test (Cell-titer Blue); format: cell-based; conditions: human, six days after treatment
[2] = Cytotoxicity in uninfected MT-4 cells (CellTiter-glo); format: cell-based; conditions: human, read-out: HIV activity and cytotoxicity data CC50; for CC50: 5 days
Protocol: The data was analyzed by GraphPad Prism software, and the curve was fitted and EC50 and CC50 values were calculated. […] CC50 refers to the inhibitory concentration that reduces the cell growth or viability of uninfected cells by 50%.

[3] = Rat liver microsome metabolic stability; format: in vitro ADME; conditions: SD, pH 7.4, 1 μM compound, 0.5 mg/mL protein, NADPH; for microsomal CLint at 1 μM / microsomal CLint: read-out: Rat liver microsome experiment CLint; for half-life at 1 μM / half-life: read-out: Rat liver microsome experiment t1/2
Protocol: (§1) Microsomal experiments: human liver microsomes: 0.5 mg/mL, Xenotech; rat liver microsomes: 0.5 mg/mL, Xenotech; coenzyme (NADPH/NADH): 1 mM, Sigma Life Science; magnesium chloride: 5 mM, 100 mM phosphate buffer (pH 7.4).
(§2) Preparation of stock solution: powder of Example compounds were precisely weighed and dissolved in DMSO to 5 mM.
(§3) Preparation of phosphate buffer (100 mm, pH7.4): 0.5M pre-formulated potassium dihydrogen phosphate (150 ml) and 0.5M potassium hydrogen phosphate (700 ml) were mixed well. The pH of the mixture was then adjusted to 7.4 with 0.5M potassium hydrogen phosphate solution. The resulting solution was 5-fold diluted with ultrapure water before use, and magnesium chloride was added to the solution, affording a phosphate buffer (100 mm), containing potassium phosphate (100 mM), magnesium chloride (3.3 mM), pH 7.4.
(§4) A NADPH regeneration system solution (containing 6.5 mM NADP, 16.5 mM G-6-P, 3 U/mL G-6-P D, 3.3 mM magnesium chloride) was formulated, which was placed on wet ice before use.
(§5) Preparation of stop solution: 50 ng/mL of propranolol hydrochloride and 200 ng/mL of tolbutamide (internal standard) in acetonitrile. 25057.5 μL of phosphate buffer (pH 7.4) was placed to a 50 mL centrifuge tube, and 812.5 μL human liver microsomes were added to the tube, which were mixed well to give a protein concentration of 0.625 mg/mL liver microsomes diluent. 25057.5 μL of phosphate buffer (pH 7.4) was placed to a 50 ml centrifuge tube, and 812.5 μL SD rat liver microsomes were added to the tube, which were mixed well to give a protein concentration of 0.625 mg/mL liver microsomes diluent.
(§6) Incubation of the sample: the stock solution of the corresponding compounds was diluted to 0.25 mM with 70% acetonitrile in water as a working solution for later use. 398 μL of human liver microsomes dilution or rat liver microsomes dilution was added into 96-well incubation plate (N=2), and 2 μL of 0.25 mM working solution was added to the plate, which were mixed well.
(§7) Metabolic stability assay: 300 μL of pre-chilled stop solution was added to each well of a 96-well deep-well plate and the plate was placed on ice as a stop plate. The 96-well incubation plate and NADPH regeneration system were placed in a 37° C. water bath, shaked at 100 rpm, pre-incubated for 5min. 80 μL of incubation solution was taken from each well of the incubation plate and was added to the stop plate, which were mixed well. 20 μL of NADPH regeneration system solution was supplemented into the mixture to form the 0 min sample. Then 80 μL of NADPH regeneration system solution was added to each well of the incubation plate to initiate the reaction and start timing. The reaction concentration of the corresponding compound was 1 μM, and the protein concentration was 0.5 mg/mL. At 10, 30, and 90 min, 100 μL of the reaction solution was added to the stop plate and vortexed for 3 min to quench the reaction. The stop plate was centrifuged at 5000×g at 4° C. for 10 min. 100 μL of supernatant was taken into a 96-well plate containing 100 μL of distilled water, which were mixed well. LC-MS/MS was used for sample analysis.
(§8) Data analysis: The peak area of the corresponding compounds and internal standard was detected by LC-MS/MS system, and the peak area ratio of compounds to internal standard was calculated. The slope was measured by plotting the natural log of the percentage of the remaining amount of the compounds versus time, and t1/2 and CLint were calculated according to the following formula, where V/M is equal to 1/protein concentration.

HIV-1 = test: microbe, parasite or virus in culture; conditions: Human immunodeficiency virus 1, MT4, 120 h, read-out: HIV activity and cytotoxicity data EC50 (nM)
Protocol: The data was analyzed by GraphPad Prism software, and the curve was fitted and EC50 and CC50 values were calculated. EC50 refers to the effective concentration that inhibits 50% virus production, 50% virus infectivity, or 50% virus-induced cellular effects. CC50 refers to the inhibitory concentration that reduces the cell growth or viability of uninfected cells by 50%.
Compound treatment: the test compounds and the reference compounds were 2-fold diluted with DMSO and added to the cell culture plate. The test compounds and the reference compounds were tested at 8 concentrations in duplicate.
Viral infection and cell treatment: HIV-1 and MT-4 cells were co-incubated at 37° C., in an incubator with 5% CO2 for 1 h. The infected cells were then seeded in a cell culture plate at a certain density. The final concentration of DMSO in the cell culture medium was 0.5%. The cells were incubated at 37° C., in an incubator with 5% CO2 for 5 days. The cells tested in the cytotoxicity assay were uninfected MT-4 cells, and other test conditions were with the same as that of the antiviral activity assay.
The activity assay of the cell: the cell viability was tested by using cell viability assay Reagent CellTiter-glo (Promega). The raw data was used for calculating the anti-HIV-1 activity and cytotoxicity of the Compounds.

HBV = test: In vitro anti-HBV activity in HepG2.2.15 cells (HBV DNA by quantitative PCR); format: cell-based; conditions: Hepatitis B virus
Protocol: Experimental method: anti-HBV activity of compounds was detected by Bright-Glo (Promega) luciferase.
Anti-cell viability assay: in vitro anti-hepatitis b virus activity of Example compounds was tested in HepG2.2.15 cells with TDF as a positive control compound. Cells were seeded into a 96-well plate on the first day; the compounds were added to treat the cells on the next day; and a new culture medium containing the compounds was replaced on the fifth day. On the eighth day, the supernatant was collected for DNA extraction. The content of HBV DNA was detected by quantitative PCR. Both test compound and TDF were subjected to a 3-fold serial dilution to get 8 concentration points in duplicate. The final concentration of DMSO in the culture medium was 0.5%. The formula for calculating the percentage of inhibition is as follows: Inhibition rate=(1−copy number of HBV in sample/copy number of HBV in DMSO control group)×100%
EC50 is analyzed by Graphpad Prism software (four parameter logistic equations), wherein I represents EC50≤50 nM, II represents 50 nM≤EC50≤200 nM, III represents 200 nM<EC50≤500 nM, IV represents EC50>500 nM (as shown in Table 1 below).

[4] = Human liver microsome metabolic stability; format: in vitro ADME; conditions: pH 7.4, 1 μM compound, 0.5 mg/mL protein, NADPH; for microsomal CLint at 1 μM / microsomal CLint: read-out: Human liver microsome experiment CLint; for half-life at 1 μM / half-life: read-out: Human liver microsome experiment t1/2
Protocol: as §1, §2, §3, §4, §5, §6, §7, §8

[5] = relative to TDF; cited from earlier work
[6] = relative to TDF; cited from earlier work; remark: listed apart in the source
[7] = HepG2.2.15 cells, HBV DNA in supernatant on the eighth day, read-out: HBV activity and cytotoxicity data EC50

Structure (SMILES) | CC50 at 6 days ([1]; HepG2.2.15 cells) [µM] | CC50 at 5 days [2] [µM] | microsomal CLint at 1 μM ([3]; rat liver microsomes) [µL/min/mg] | half-life at 1 μM ([3]; rat liver microsomes) [min] | EC50 (HIV-1) [nM] | EC50 (HBV; [7]) [nM] | microsomal CLint at 1 μM ([4]; human liver microsomes) [µL/min/mg] | half-life at 1 μM ([4]; human liver microsomes) [min] | CC50 [1] [µM] | CC50 [2] [µM] | microsomal CLint ([3]; microsomes) [µL/min/mg] | half-life ([3]; microsomes) [min] | microsomal CLint ([4]; microsomes) [µL/min/mg] | half-life ([4]; microsomes) [min] | further results
CCCCCCCCCCCCCCCCOCCCOP(=O)(CO[C@H](C)Cn1cnc2c(N)ncnc21)OCOC(=O)SC(C)C (stereo partly drawn) [Compound T-5, (R)-9-{2-[(hexadecyloxypropyl)(isopropylsulfanylcarbonyloxymethyl)phosphorylmethoxy]propyl}adenine] | > 50 | > 50 | 56.6 | 24.5 | 5 to 20 | 50 to 200 | 42.7 | 32.5 |  |  |  |  |  |  | 
CC(C)OC(=O)[C@H](C)NP(=S)(CO[C@H](C)Cn1cnc2c(N)ncnc21)Oc1ccccc1 (stereo partly drawn) [Compound T-3, 9-{(R)-2-[({[(S)-1-(isopropoxycarbonyl)ethyl]amino}phenoxythiophosphoryl)methoxy]lpropyl}adenine] |  | 3 to 10 |  |  | 5 to 20 |  |  |  |  |  |  |  |  |  | CC50 at 6 days [1]: > 50 µM; microsomal CLint at 1 μM ([3]; microsomes): 82.5 µL/min/mg; half-life at 1 μM ([3]; microsomes): 16.8 min; EC50 (HBV; HepG2.2.15, read-out: HBV activity and cytotoxicity data EC50 (nM)): 50 to 200 nM; microsomal CLint at 1 μM ([4]; microsomes): 285 µL/min/mg; half-life at 1 μM ([4]; microsomes): 4.9 min
CCCCCCCCCCCCCCCCOCCCOP(=S)(CO[C@H](C)Cn1cnc2c(N)ncnc21)N[C@@H](C)C(=O)OC(C)C (stereo partly shown) [Compound T-6] |  |  |  |  | > 500 | 200 to 500 |  |  | 7 to 50 | 3 to 10 | 9.9 | 140 | 12.9 | 107 | 
CCCCCCCCCCCCCCCCOCCCOP(=S)(CO[C@H](C)Cn1cnc2c(N)ncnc21)OCOC(=O)OC(C)C (stereo partly drawn) [Compound T-4, (R)-9-{2-[(hexadecyloxypropyl)(isopropylcarbonatemethyl)thiophosphorylmethoxy]propyl}adenine] |  |  |  |  | > 500 | > 500 |  |  | > 50 | > 50 | 68.5 | 20.2 | 116 | 11.9 | 
CC(=O)SCCOP(=O)(CO[C@H](C)Cn1cnc2c(N)ncnc21)OCOC(=O)OC(C)C (stereo partly drawn) [Compound T-8, (R)-9-{2-[(acetylsulfanylethyl)(isopropylcarbonatemethyl)phosphorylmethoxy]propyl}adenine] | > 50 | 10 to 50 | 92.7 | 14.9 | 20 to 100 | 200 to 500 | 84.1 | 16.5 |  |  |  |  |  |  | 
CCCCCCCCCCCCCCCCOCCCOP(O)(=S)CO[C@H](C)Cn1cnc2c(N)ncnc21 (stereo partly shown) [Compound T-1] |  |  |  |  | 5 to 20 | < 50 |  |  | 7 to 50 | 3 to 10 | 5.6 | 249 | 45.6 | 3.04 | 
CCCCCCCCCCCCCCCCOCCCOP(=O)(CO[C@H](C)Cn1cnc2c(N)ncnc21)N[C@@H](C)C(=O)SC(C)C (stereo partly shown) [Compound T-7] | 7 to 50 | 3 to 10 | 50.8 | 27.3 | < 5 | 50 to 200 | 84.4 | 16.4 |  |  |  |  |  |  | 
CC(C)OC(=O)[C@H](C)N[P@](=O)(CO[C@H](C)Cn1cnc2c(N)ncnc21)Oc1ccccc1 [TAF, Tenofovir Alafenamide Fumarate] |  |  |  |  |  |  |  |  |  |  |  |  |  |  | concentration of TFV in immune cells metabolized by TAF, higher than that of TDF [5]: 4 times; concentration of TFV in plasma metabolized by TAF, lower than that of TDF [6]: 90%
